Earlier results as cited in patent US12458653B2, “Cannabis based therapeutic and method of use” (priority 2018, dated 2025).
Read-outs that look alike come from different tables or passages of the source.

Key:
[1] = extensive liver metabolism
[2] = test system: chemotherapy-induced nausea and vomiting; details: versus available anti-emetic regimens

CCCCCc1cc(O)c2c(c1)OC(C)(C)[C@@H]1CCC(C)=C[C@@H]21 [Δ9-THC, delta-9 tetrahydrocannabinol]
oral bioavailability of Δ9-THC [1]: 4-12% | half-life (frequent users): 120 to 312 h | half-life (infrequent user): 31.2 h | average plasma clearance rate (men): 14.9 ± 3.7 L/h | plasma clearance rate (naïve cannabis users): approximately 36 L/hour | plasma clearance rate (regular cannabis users): 60 L/h | average plasma clearance rate (women): 11.8 ± 3 L/h

CCCCCc1cc(O)c2c(c1)OC(C)(C)[C@@H]1CCC(CO)=C[C@@H]21 [11-OH-THC]
peak concentration in the urine (after 3 hours, smoking approximately 27 mg of Δ9-THC): 77.0 ± 329.7 ng/mL | peak concentration in the urine (within two hours after smoking approximately 27 mg of Δ9-THC in a cigarette): 3.2 to 53.3 ng/mL

CCCCCc1cc(O)c2c(c1)OC(C)(C)[C@@H]1CCC(C(=O)O)=C[C@@H]21 [THC—COOH]
peak concentration in the urine (after 4 hours, smoking approximately 27 mg of Δ9-THC): 179.4 ng/mL | urinary excretion half-life (after seven days of monitoring): approximately 30 hours | time THC-COOH is detectable in plasma (after smoking a cigarette containing 16-34 mg of Δ9-THC): 2 to 7 days | urinary excretion half-life (after twelve days of monitoring): 44 to 60 h | initial concentration of THC-COOH in serum (clinical study among 52 volunteers): 14 to 49 ng/mL | THC-COOH detection time (single chronic user): 25 days

CCCCCc1cc(O)c2c(c1)OC(C)(C)[C@@H]1CCC(C)=C[C@@H]21 [Dronabinol]
relief of chemotherapy-induced nausea and vomiting [2]: little relief over available anti-emetic regimens
